Measured values as given in patent US20240374680A1, “PHARMACEUTICAL COMPOSITION FOR TREATMENT OF VIRAL INFECTIONS” (Virenc AB, priority 2021, published 2024).
Where no end group is shown, it is not given here.

Tests used:
Langat virus (LGTV) [1] = type: cell-based
SARS-CoV-2 = SARS-CoV-2 virus inhibition assay (plaque assay); type: cell-based, Severe Acute Respiratory Syndrome Coronavirus 2; settings: SARS-CoV-2 (1×10^3) exposed 1 h at 37° C., then Vero cells; read-out: concentration for 50% reduction of PFU
[2] = system: Influenza A virus (H1N1/CA09pdm); assay: Influenza A virus inhibition assay (plaque assay); type: cell-based; settings: Influenza A virus (1×10^3) pre-treated 1 h at 37° C.; read-out: concentration for 50% reduction of influenza A PFU
Langat virus (LGTV) [3] = type: biochemical; settings: 2 h
Kunjin virus (KUNV) [4] = assay: Flavivirus inhibition assay, crystal violet-based plaque assay (Vero cells); type: cell-based; settings: for reduction of viral load: L- or D-PLNC8 αβ (1:1)
Kunjin virus (KUNV) [5] = assay: Peptide treatment of KUNV-infected A549 cells (viral mRNA, extracellular virions); settings: A549 infected 1 h, then 10 μM, 48 h; cell culture media
[6] = Carboxyfluorescein (CF) release assay; type: biochemical
Method: Liposomes were prepared by thin film hydration, followed by extrusion^19. Stock solutions of the lipids 1-palmitoyl-2-oleoyl-sn-glycero3-phosphatidylcholine (POPC), 1-palmitoyl-2-oleoyl-sn-glycero-3-phosphoL-serine (POPS) and cholesterol (Chol) were mixed at molar ratio 95:0:5, 65:30:5, 70:0:30, 91:1:8 and 81:11:8. The solvent was slowly evaporated via nitrogen stream, then the vials were dried in a vacuum desiccator overnight. Dry films were hydrated by addition of 1 mL 5(6)-carboxyfluorescein solution. The CF solution, presenting self-quenching concentration of CF, was prepared with 50 mM CF dissolved in 10 mM PB buffer and 90 mM NaCl, followed by pH adjustment. CF solution was dispensed on the lipid cake and incubated for 10 min under gentle shaking (50 min-1 on orbital shaker), followed by 1 min vortexing. The liposomes were extruded 21 times with a mini extruder (Avanti Polar Lipids, Inc.), through a 0.1 um membrane (Nucleapore track-etched hydrophilic membrane). The lipids were purified by gel filtration through a PD Mini Trap G-25 column by elution in PB buffer (10 mM).
To study peptide efficacy on liposome membrane disruption, the liposome fluorescence was monitored upon peptide addition by microplate reader (Tecan Infinite M1000 Pro, λex=485 nm, λem=520 nm). Liposomes were diluted to a final concentration of 25 μM with 10 mM PB buffer and incubated with PLNC8 α, PLNC8 β and PLNC8 α/β at concentration of 10^−5-10^2 μM in a 96 well plate at a final volume of 200 μL. Due to the self-quenching concentration of carboxyfluorescein (CF) inside the liposomes, any fluorescence of the liposome-peptide system could be attributed to the liposome membrane disruption. Fluorescence was monitored prior to peptide addition (F0), and continuatively for 30 min. Total CF release (FT) was achieved through addition of 1% Triton X-100. Instantaneous CF release (%) was calculated through the formula 100×(F−F0)/(FT−F0), where F is the instantaneous fluorescence.

human cells = settings: previously shown (ref. 16); cited from earlier work

SVPTSVYTLGIKILWSAYKHRKTIEKSFNKGFYH [L-PLNC8 β]
decrease of viral load (Langat virus (LGTV) [1]): > 99% | IC50 (SARS-CoV-2): 900 to 1000 nM | IC50 [2]: > 20000 nM | permeabilization of the viral envelope (Sytox Green) (Langat virus (LGTV) [3]): permeabilization of LGTV

SVPTSVYTLGIKILWSAYKHRKTIEKSFNKGFYH, SEQ ID NO:1 [D-PLNC8 β]
IC50 (SARS-CoV-2): 1400 nM | IC50 [2]: 19000 nM | permeabilization of the viral envelope (Sytox Green) (Langat virus (LGTV) [3]): permeabilized

PLNC8 β: peptide of SEQ ID NO:1; statement covers L- and D-enantiomers (FIG. 7) (SVPTSVYTLGIKILWSAYKHRKTIEKSFNKGFYH; also: L- or D-enantiomer covered; listed as Lactobacillus plantarum)
efficiency at eliminating KUNV, single peptides compared (Kunjin virus (KUNV) [4]; 20 μM, L- and D-enantiomers (FIG. 7)): more efficient than PLNC8 α at eliminating KUNV

Plantaricin NC8 (PLNC8) αβ [PLNC8 αβ]
reduction of viral load (Kunjin virus (KUNV) [4]; 0.1 μM, KUNV MOI 0.1, 0.01, 0.001, 1 h): 80% | reduction of viral load (Kunjin virus (KUNV) [4]; 1 μM, KUNV MOI 0.1, 0.01, 0.001, 1 h): 95% | elimination of virions (Kunjin virus (KUNV) [4]; ≥10 μM, KUNV MOI 0.1, 0.01, 0.001, 1 h): completely eliminates all virions | reduction of extracellular virion load (Kunjin virus (KUNV) [5]): 70-80% | susceptibility of liposomes (CF release) ([6]; POPC:POPS:Chol (70:0:30), mimicking a eukaryotic plasma membrane): resilient | susceptibility of liposomes (CF release) ([6]; POPC:POPS:Chol (81:11:8), mimicking a eukaryotic ER membrane): very susceptible | susceptibility of liposomes (CF release) ([6]; POPC:POPS:Chol (91:1:8)): more susceptible | cytotoxicity towards human cells (human cells): no cytotoxicity towards human cells
